Experimental data from paper PMC10707934, “Design and Synthesis of Novel α-Methylchalcone Derivatives, Anti-Cervical Cancer Activity, and Reversal of Drug Resistance in HeLa/DDP Cells” (Molecules, 2023).

Experiments:
Type in all cases: cell-based, human
Bcl-2 [1] = test: Western blot, Bcl-2 expression in HeLa/DDP cells; conditions: 24 h, 2.5, 5, and 10 μM
Method: (§1) HeLa cells were cultured in 60 mm Petri dishes at a density of 1.0 × 10^6 cells per dish and treated with 0.1% DMSO (vehicle), positive control chalcone (20 μM), and different concentrations of compound 3k (2.5, 5, and 10 μM), respectively. Following a 24 and 48 h incubation period, the cells were harvested via centrifugation and subsequently washed twice with PBS that had been chilled to 0 °C. Next, the cells were homogenized using RIPA lysis buffer (Solarbio, Beijing, China) and supplemented with 1% PMSF (MP Biomedicals, 0754-25G, CAS:329-98-6, Santa Ana, CA, USA) and 1% mixed phosphatase inhibitor (Solarbio, Beijing, China). […]
(§2) Subsequently, the protein concentrations were determined utilizing a BCA Protein Assay Kit (Solarbio, China). An equivalent quantity of the proteins (12 μg) was fractionated via 8–12% sodium dodecyl sulfate–polyacrylamide gel electrophoresis (SDS-PAGE) and transferred onto nitrocellulose membranes (Amersham Biosciences, Amersham, UK). […] The blots were subsequently visualized using enhanced chemiluminescence (Biosharp, Shanghai, China) and detected utilizing a PE 0723 imager (ProteinSimple, Silicon Valley, CA, USA). Each experiment was conducted in triplicate at minimum and analyzed employing Image J software (V1.8.0.112). β-actin(ab198991) rabbit mAb, goat anti-rabbit IgG (H + L) HRP—#S0001 (Affinity). […]

[2] = tested on: α-tubulin, β-tubulin in HeLa cells; test: Immunofluorescence assay of microtubules, HeLa; conditions: 24 h, 3k 1, 2, and 4 μM, colchicine and paclitaxel 2.0 μM
Method: (§3) The cells were then fixed by adding 400 μL of 4% paraformaldehyde to each well and incubating for 30 min. 0.1% Triton was added at a volume of 400 μL per well and allowed to incubate for 10 min. Following this, goat serum (10%) was added at 400 μL per well and incubated for 40 min. Primary antibodies (α-tubulin, β-tubulin) were then incubated overnight at a temperature of 4 °C. Subsequently, secondary antibodies (α-mouse, β-rabbit) were incubated for 1.5 h. DAPI staining was performed at 400 μL per well for 5 min, followed by a wash with PBS. Cell climbing tablets were removed and inverted onto slides with sealer. Photographs were captured using a fluorescent inverted microscope.

HeLa/DDP cells = test: Rhodamine 123 accumulation in HeLa/DDP cells; conditions: 48 h, 0.5 and 1 μM
Method: The experimental procedure involved the addition of 1 drop of PBS to each well of a 12-well plate, followed by the placement of cell crawlers and removal of excess PBS. HeLa/DDP cells were then plated at a concentration of 1.5 × 10^5 cells/mL, with 1 mL per well, and cultured for a duration of 24 h. A blank control group was established alongside a positive group treated with verapamil (6 μM) and an intervention group treated with 3k (0.25, 0.5, and 1 μM) for a duration of 48 h. The drug-containing culture medium was subsequently washed with PBS three times, with each wash lasting 5 min. The Rh123 master mix was diluted with culture medium to create a 20 μM Rh123 buffer, which was subsequently incubated at a temperature of 37 °C for a duration of 1 h. Following this incubation period, the Rh123 buffer was removed, and the cells were subjected to three consecutive washes with PBS, each lasting for 10 min. Subsequently, a fixation process was conducted using 4% paraformaldehyde at a volume of 1 mL per well, with a duration of 20 min. […] Subsequently, the side containing cells was affixed onto the liquid and made ready for measurement. The cells were then examined using a fluorescence microscope (Leica, Microsystems CMS GmbH, GER) equipped with a fluorescein filter, and the fluorescence intensity of each distinct group was assessed.

[3] = tested on: α-/β-tubulins in HeLa/DDP cells; test: Western blot of polymerized and dissociated α-/β-tubulins, HeLa/DDP; conditions: versus control
Method: (§4) HeLa cells were cultured in 60 mm Petri dishes at a density of 1.0 × 10^6 cells per dish and treated with 0.1% DMSO (vehicle), positive control chalcone (20 μM), and different concentrations of compound 3k (2.5, 5, and 10 μM), respectively. Following a 24 and 48 h incubation period, the cells were harvested via centrifugation and subsequently washed twice with PBS that had been chilled to 0 °C. Next, the cells were homogenized using RIPA lysis buffer (Solarbio, Beijing, China) and supplemented with 1% PMSF (MP Biomedicals, 0754-25G, CAS:329-98-6, Santa Ana, CA, USA) and 1% mixed phosphatase inhibitor (Solarbio, Beijing, China). The resulting lysates were then incubated on ice for 30 min, intermittently vortexed every 5 min, and subsequently centrifuged at 12,000 rpm for 20 min to collect the supernatants.
(§5) Subsequently, the protein concentrations were determined utilizing a BCA Protein Assay Kit (Solarbio, China). An equivalent quantity of the proteins (12 μg) was fractionated via 8–12% sodium dodecyl sulfate–polyacrylamide gel electrophoresis (SDS-PAGE) and transferred onto nitrocellulose membranes (Amersham Biosciences, Amersham, UK). Following this, the membranes were obstructed with 5% nonfat dried milk in TBS containing 1% Tween-20 for a duration of 2 h at ambient temperature and were subjected to overnight incubation with specific primary antibodies (CST, Boston, MA, USA) at 4 °C. Following three washes in TBST, the membranes were subjected to incubation with the suitable HRP-conjugated secondary antibodies at ambient temperature for a duration of 2 h. The blots were subsequently visualized using enhanced chemiluminescence (Biosharp, Shanghai, China) and detected utilizing a PE 0723 imager (ProteinSimple, Silicon Valley, CA, USA). Each experiment was conducted in triplicate at minimum and analyzed employing Image J software (V1.8.0.112). β-actin(ab198991) rabbit mAb, goat anti-rabbit IgG (H + L) HRP—#S0001 (Affinity). Bax (ab289364), Bcl-2 (ab218123), MDR1/ABCB1 (E1Y7B) rabbit mAb #13342 (CST).
(§6) Polymerized and free microtubule proteins were extracted using the methods described in references, respectively. Following drug intervention, the cells were subjected to two washes with preheated microtubule protein buffer MTSB at 37 °C. Subsequently, 70 μL of MTSB was added, and the cells were lysed for 10 min at 37 °C in a constant temperature chamber shielded from light. The cells were then scraped with a spatula and centrifuged at 14,000 r/min for 10 min at room temperature. The resulting supernatant, which represented the free state microtubule protein suspension, was subsequently removed. The remaining precipitate was treated with RIPA lysis solution, followed by lysis on ice for a duration of 30 min. Subsequently, centrifugation was performed at a temperature of 4 °C and a speed of 12,000 revolutions per minute for a duration of 20 min. The resulting supernatant was collected as a suspension of polymerized microtubule protein. The Western blotting procedure was the same as in Section 3.3.4. α-Tubulin (DM1A) Mouse mAb#3873 (CST), β-Tubulin (D2N5G) Rabbit mAb #15115 (CST), CoraLite488-conjugated Goat Anti-Mouse lgG(H+L) (Proteintech); CoraLite488-conjugated Goat Anti-Rabbit lgG(H+L) (Proteintech); β-actin(ab198991) rabbit mAb, Goat Anti-Mouse IgG H&L (HRP) (ab6789); Goat anti-Rabbit IgG (H+L) HRP—#S0001 (Affinity).

Bax [4] = test: Western blot, Bax expression in HeLa cells; conditions: 24 h, 2.5, 5, and 10 μM
Method: as §1, §2

Bax [5] = test: Western blot, Bax expression in HeLa/DDP cells; conditions: 24 h, 5 and 10 μM
Method: as §1, §2

Bcl-2 [6] = test: Western blot, Bcl-2 expression in HeLa cells; conditions: 24 h, 5 and 10 μM
Method: as §1, §2

[7] = tested on: α-tubulin, β-tubulin in HeLa/DDP cells; test: Immunofluorescence assay of microtubules, HeLa/DDP; conditions: 24 h, 3k 1, 2, and 4 μM, paclitaxel 2.0 μM
Method: as §3

[8] = tested on: α-/β-tubulins in HeLa cells; test: Western blot of polymerized and dissociated α-/β-tubulins, HeLa; conditions: 24 h, versus control
Method: as §4, §5, §6

COc1ccc(/C=C(\C)C(=O)c2ccc(Cl)c(Cl)c2)cc1OC [Compound 3k, (E)-1-(3,4-Dichlorophenyl)-3-(3,4-dimethoxyphenyl)-2-methylprop-2-en-1-one]
Bcl-2 expression versus control group (Bcl-2 [1]): significantly downregulate | microtubule immunofluorescence (α green, β red) [2]: green and red fluorescence of the encapsulated cells weakened | average fluorescence intensity emitted by rhodamine 123 (HeLa/DDP cells): notably greater than that of the control group | expression of polymerized β microtubulin ([3]; 24 h, 1, 2, and 4 μM): significant reduction | expression of polymerized α-microtubulin ([3]; 24 h, 2 and 4 μM): significant decrease | expression of dissociated state α and β microtubule proteins ([3]; 24 h, 3k 4 μM, colchicine and paclitaxel 2.0 μM): significant increase | Bax expression versus control group (Bax [4]): significant upregulation | Bax expression versus control group (Bax [5]): significant increase | Bcl-2 expression versus control group (Bcl-2 [6]): downregulation | microtubule immunofluorescence (α green, β red) [7]: attenuation of the green and red fluorescence of the enclosed cells | expression of dissociated state α and β microtubule proteins ([8]; 3k 4 μM, colchicine 2 μM, paclitaxel 2.0 μM): significant increase | expression of α and β microtubule proteins in the polymerized state ([8]; 3k 2 and 4 μM, colchicine and paclitaxel 2.0 μM): significant decrease
